Data published in the kinase profiling compilation of Christmann-Franck et al. (2016).

Legend:
Test in all cases: radiometric filter-binding kinase assay, Kinase HotSpot
Details in all cases: compound 0.5 µM; ATP 10 µM
ACVRL1 (human) = ACVRL1 (human) (UniProt P37023)
BRSK1 (human) = BRSK1 (human) (UniProt Q8TDC3)
CAMK2G (human) = CAMK2G (human) (UniProt Q13555)
CDC42BPB (human) = CDC42BPB (human) (UniProt Q9Y5S2)
CDK2 CCNE1 (human) = CDK2 CCNE1 (human) (UniProt P24941+P24864)
CDK6 CCND3 (human) = CDK6 CCND3 (human) (UniProt P30281+Q00534)
CDK9 CCNT1 (human) = CDK9 CCNT1 (human) (UniProt P50750+O60563)
CLK1 (human) = CLK1 (human) (UniProt P49759)
CLK3 (human) = CLK3 (human) (UniProt P49761)
CLK4 (human) = CLK4 (human) (UniProt Q9HAZ1)
CSK (human) = CSK (human) (UniProt P41240)
CSNK2A1 (human) = CSNK2A1 (human) (UniProt P68400)
DAPK2 (human) = DAPK2 (human) (UniProt Q9UIK4)
DAPK3 (human) = DAPK3 (human) (UniProt O43293)
DYRK4 (human) = DYRK4 (human) (UniProt Q9NR20)
EPHA7 (human) = EPHA7 (human) (UniProt Q15375)
Chain of EPHA7 (human) (Q15375 whole entry, looked up): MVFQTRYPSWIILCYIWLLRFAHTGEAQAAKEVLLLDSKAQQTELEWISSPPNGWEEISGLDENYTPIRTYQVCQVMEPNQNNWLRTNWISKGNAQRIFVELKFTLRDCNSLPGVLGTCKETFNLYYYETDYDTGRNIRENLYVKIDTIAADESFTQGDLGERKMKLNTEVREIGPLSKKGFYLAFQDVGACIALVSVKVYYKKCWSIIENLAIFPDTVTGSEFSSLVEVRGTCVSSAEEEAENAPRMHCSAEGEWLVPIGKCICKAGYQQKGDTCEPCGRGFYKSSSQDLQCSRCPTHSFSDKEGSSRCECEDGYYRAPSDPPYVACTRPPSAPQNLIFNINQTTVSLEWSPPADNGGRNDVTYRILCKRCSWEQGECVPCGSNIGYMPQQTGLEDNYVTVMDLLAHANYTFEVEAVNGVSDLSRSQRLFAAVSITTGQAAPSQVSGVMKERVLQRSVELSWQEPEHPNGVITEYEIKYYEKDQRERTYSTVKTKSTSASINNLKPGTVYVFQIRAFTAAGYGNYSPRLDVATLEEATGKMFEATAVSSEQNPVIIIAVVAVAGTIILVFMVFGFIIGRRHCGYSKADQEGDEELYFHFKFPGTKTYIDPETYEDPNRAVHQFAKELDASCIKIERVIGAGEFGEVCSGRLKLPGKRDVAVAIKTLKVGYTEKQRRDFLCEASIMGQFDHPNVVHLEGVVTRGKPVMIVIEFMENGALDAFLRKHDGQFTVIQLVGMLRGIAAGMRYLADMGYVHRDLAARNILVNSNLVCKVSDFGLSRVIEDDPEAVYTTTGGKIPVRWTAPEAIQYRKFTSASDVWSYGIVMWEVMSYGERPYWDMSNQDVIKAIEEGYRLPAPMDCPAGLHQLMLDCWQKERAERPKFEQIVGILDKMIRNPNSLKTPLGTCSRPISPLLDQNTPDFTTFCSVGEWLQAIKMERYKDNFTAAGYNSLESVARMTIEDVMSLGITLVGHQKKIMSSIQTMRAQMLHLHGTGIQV

EPHB4 (human) = EPHB4 (human) (UniProt P54760)
ERBB4 (human) = ERBB4 (human) (UniProt Q15303)
GRK7 (human) = GRK7 (human) (UniProt Q8WTQ7)
GSK3B (human) = GSK3B (human) (UniProt P49841)
JAK2 JH1 JH2 (human) = JAK2 JH1 JH2 (human) (UniProt O60674)
LIMK1 (human) = LIMK1 (human) (UniProt P53667)
MAP3K5 (human) = MAP3K5 (human) (UniProt Q99683)
MAP3K9 (human) = MAP3K9 (human) (UniProt P80192)
Chain of MAP3K9 (human) (P80192 whole entry, looked up): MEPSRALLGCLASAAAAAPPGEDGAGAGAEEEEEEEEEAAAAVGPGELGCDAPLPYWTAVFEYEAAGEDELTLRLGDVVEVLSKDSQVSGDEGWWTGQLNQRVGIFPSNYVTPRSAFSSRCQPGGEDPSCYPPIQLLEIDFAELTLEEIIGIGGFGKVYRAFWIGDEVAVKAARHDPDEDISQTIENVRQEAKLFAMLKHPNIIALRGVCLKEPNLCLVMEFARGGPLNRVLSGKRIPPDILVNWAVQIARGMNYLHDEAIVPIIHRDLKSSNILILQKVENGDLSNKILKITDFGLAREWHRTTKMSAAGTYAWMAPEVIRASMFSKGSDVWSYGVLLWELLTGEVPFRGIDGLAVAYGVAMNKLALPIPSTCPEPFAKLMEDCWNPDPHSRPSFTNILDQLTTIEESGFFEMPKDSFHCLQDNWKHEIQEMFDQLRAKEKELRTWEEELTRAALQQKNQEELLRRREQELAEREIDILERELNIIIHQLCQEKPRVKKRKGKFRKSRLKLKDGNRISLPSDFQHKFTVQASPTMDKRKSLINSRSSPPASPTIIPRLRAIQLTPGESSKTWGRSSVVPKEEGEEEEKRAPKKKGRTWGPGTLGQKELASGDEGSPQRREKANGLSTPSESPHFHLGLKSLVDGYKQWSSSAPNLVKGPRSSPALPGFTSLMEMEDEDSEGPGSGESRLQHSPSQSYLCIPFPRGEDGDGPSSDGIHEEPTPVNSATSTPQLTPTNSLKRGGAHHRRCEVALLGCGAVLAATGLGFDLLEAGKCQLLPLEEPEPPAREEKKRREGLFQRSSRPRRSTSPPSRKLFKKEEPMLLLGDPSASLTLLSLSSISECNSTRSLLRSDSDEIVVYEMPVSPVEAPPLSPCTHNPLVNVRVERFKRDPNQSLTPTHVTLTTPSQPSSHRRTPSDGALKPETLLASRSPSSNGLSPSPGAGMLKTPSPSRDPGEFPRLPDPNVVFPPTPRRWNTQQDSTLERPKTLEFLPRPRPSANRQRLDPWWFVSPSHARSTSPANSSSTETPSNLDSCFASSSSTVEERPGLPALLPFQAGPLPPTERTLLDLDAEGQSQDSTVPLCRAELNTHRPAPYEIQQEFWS

MAP4K5 (human) = MAP4K5 (human) (UniProt Q9Y4K4)
MAPK11 (human) = MAPK11 (human) (UniProt Q15759)
MERTK (human) = MERTK (human) (UniProt Q12866)
MINK1 (human) = MINK1 (human) (UniProt Q8N4C8)
MYLK2 (human) = MYLK2 (human) (UniProt Q9H1R3)
PNCK (human) = PNCK (human) (UniProt Q6P2M8)
PTK2B (human) = PTK2B (human) (UniProt Q14289)
ROCK1 (human) = ROCK1 (human) (UniProt Q13464)
ROS1 (human) = ROS1 (human) (UniProt P08922)
Chain of ROS1 (human) (P08922 whole entry, looked up): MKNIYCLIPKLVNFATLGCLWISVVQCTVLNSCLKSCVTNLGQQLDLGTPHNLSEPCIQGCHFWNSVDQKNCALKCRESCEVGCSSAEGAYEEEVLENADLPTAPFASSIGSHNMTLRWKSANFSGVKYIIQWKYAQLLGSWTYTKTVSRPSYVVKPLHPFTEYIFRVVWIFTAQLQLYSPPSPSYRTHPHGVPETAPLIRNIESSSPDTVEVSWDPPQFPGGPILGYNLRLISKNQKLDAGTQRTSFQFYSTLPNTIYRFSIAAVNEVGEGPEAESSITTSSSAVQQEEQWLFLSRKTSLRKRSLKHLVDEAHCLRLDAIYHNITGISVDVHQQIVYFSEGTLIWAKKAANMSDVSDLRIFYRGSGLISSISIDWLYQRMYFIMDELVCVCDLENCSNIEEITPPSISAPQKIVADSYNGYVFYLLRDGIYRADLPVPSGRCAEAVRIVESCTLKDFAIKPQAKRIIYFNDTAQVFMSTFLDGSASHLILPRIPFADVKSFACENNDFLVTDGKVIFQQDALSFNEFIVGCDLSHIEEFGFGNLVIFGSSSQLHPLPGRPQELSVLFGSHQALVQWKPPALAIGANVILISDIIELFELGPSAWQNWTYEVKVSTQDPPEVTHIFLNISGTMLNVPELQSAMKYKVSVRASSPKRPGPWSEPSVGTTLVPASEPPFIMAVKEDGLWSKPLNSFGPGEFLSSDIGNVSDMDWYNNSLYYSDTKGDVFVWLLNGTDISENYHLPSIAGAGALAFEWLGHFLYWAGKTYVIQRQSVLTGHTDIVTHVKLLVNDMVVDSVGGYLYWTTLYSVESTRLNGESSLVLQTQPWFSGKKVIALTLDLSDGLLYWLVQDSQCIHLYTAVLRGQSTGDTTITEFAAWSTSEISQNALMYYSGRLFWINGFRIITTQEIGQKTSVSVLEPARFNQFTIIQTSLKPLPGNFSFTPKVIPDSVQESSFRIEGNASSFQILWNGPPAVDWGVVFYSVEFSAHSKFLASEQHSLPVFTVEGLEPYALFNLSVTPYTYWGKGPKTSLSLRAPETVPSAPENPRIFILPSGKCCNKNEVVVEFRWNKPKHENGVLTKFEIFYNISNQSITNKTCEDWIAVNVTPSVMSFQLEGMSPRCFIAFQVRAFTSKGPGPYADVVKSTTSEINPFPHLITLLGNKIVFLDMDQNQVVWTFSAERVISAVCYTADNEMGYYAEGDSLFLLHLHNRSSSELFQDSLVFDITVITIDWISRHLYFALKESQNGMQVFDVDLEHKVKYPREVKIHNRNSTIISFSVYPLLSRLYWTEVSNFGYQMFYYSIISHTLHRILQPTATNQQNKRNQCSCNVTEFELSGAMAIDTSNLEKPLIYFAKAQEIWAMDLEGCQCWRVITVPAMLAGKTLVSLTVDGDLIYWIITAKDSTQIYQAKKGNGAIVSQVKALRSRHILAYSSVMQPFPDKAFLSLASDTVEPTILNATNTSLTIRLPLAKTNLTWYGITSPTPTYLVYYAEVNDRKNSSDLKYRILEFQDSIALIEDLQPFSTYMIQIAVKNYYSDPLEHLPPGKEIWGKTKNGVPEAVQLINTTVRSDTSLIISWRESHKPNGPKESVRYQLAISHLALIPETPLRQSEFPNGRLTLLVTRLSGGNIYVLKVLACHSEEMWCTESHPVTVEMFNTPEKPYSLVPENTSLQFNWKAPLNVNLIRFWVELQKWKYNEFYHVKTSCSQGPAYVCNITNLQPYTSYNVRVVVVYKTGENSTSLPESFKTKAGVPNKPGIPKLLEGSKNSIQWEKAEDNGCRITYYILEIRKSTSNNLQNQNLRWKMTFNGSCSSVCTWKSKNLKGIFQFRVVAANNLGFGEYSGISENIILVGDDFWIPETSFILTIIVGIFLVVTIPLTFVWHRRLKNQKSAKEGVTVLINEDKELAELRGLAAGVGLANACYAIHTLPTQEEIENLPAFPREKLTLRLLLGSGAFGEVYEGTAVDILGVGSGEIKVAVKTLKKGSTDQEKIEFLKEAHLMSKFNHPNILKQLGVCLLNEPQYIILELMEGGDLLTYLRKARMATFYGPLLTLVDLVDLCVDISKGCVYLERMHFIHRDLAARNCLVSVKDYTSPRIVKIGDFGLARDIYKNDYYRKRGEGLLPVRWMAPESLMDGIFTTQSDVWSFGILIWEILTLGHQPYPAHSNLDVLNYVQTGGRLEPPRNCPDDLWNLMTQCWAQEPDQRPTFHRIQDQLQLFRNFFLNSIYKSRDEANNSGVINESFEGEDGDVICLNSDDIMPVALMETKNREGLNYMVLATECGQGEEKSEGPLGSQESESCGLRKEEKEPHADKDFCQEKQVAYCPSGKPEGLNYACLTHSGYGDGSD

RPS6KA4 KD2 (human) = RPS6KA4 KD2 (human) (UniProt O75676)
RPS6KA5 KD2 (human) = RPS6KA5 KD2 (human) (UniProt O75582)
TAOK3 (human) = TAOK3 (human) (UniProt Q9H2K8)
TBK1 (human) = TBK1 (human) (UniProt Q9UHD2)
TEC (human) = TEC (human) (UniProt P42680)
ULK1 (human) = ULK1 (human) (UniProt O75385)
VRK1 (human) = VRK1 (human) (UniProt Q99986)
WNK3 (human) = WNK3 (human) (UniProt Q9BYP7)
CSNK1A1 (human) = CSNK1A1 (human) (UniProt P48729)

Chain of CAMK2G (human) (Q13555 whole entry, looked up): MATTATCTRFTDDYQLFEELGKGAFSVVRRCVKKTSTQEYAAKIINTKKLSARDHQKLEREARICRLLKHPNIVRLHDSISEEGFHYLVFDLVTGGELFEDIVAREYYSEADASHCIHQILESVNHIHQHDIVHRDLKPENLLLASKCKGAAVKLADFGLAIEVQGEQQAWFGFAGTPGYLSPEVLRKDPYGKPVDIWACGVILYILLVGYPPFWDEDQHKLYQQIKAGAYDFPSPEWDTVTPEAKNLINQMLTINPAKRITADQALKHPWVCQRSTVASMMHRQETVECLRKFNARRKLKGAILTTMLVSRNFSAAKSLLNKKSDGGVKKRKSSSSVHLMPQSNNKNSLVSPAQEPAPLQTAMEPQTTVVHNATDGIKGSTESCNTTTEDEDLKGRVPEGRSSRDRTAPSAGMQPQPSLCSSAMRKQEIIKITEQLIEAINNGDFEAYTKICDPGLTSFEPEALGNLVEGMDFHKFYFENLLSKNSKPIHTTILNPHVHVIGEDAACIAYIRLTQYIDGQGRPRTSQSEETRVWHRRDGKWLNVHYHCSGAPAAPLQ

## O=c1cc(N2CCOCC2)oc2c(-c3ccccc3)cccc12
ACVRL1 (human)
  residual activity: 91.9%
BRSK1 (human)
  residual activity: 103%
CAMK2G (human)
  residual activity: 90.5%
CDC42BPB (human)
  residual activity: 88.4%
CDK2 CCNE1 (human)
  residual activity: 93%
CDK6 CCND3 (human)
  residual activity: 101%
CDK9 CCNT1 (human)
  residual activity: 103%
CLK1 (human)
  residual activity: 112%
CLK3 (human)
  residual activity: 107%
CLK4 (human)
  residual activity: 89.1%
CSK (human)
  residual activity: 88.1%
CSNK2A1 (human)
  residual activity: 64.8%
DAPK2 (human)
  residual activity: 126%
DAPK3 (human)
  residual activity: 96.5%
DYRK4 (human)
  residual activity: 91.9%
EPHA7 (human)
  residual activity: 102%
EPHB4 (human)
  residual activity: 99.5%
ERBB4 (human)
  residual activity: 102%
GRK7 (human)
  residual activity: 112%
GSK3B (human)
  residual activity: 96.9%
JAK2 JH1 JH2 (human)
  residual activity: 95.1%
LIMK1 (human)
  residual activity: 98.6%
MAP3K5 (human)
  residual activity: 96.2%
MAP3K9 (human)
  residual activity: 108%
MAP4K5 (human)
  residual activity: 92.2%
MAPK11 (human)
  residual activity: 96.2%
MERTK (human)
  residual activity: 95.2%
MINK1 (human)
  residual activity: 94.6%
MYLK2 (human)
  residual activity: 102%
PNCK (human)
  residual activity: 98.4%
PTK2B (human)
  residual activity: 107%
ROCK1 (human)
  residual activity: 104%
ROS1 (human)
  residual activity: 98.4%
RPS6KA4 KD2 (human)
  residual activity: 111%
RPS6KA5 KD2 (human)
  residual activity: 99.5%
TAOK3 (human)
  residual activity: 88.2%
TBK1 (human)
  residual activity: 94.1%
TEC (human)
  residual activity: 107%
ULK1 (human)
  residual activity: 102%
VRK1 (human)
  residual activity: 85.4%
WNK3 (human)
  residual activity: 89.2%

## N#Cc1c(NC(=O)c2cccc3ccccc23)sc2c1CCCC2
ACVRL1 (human)
  residual activity: 107%
BRSK1 (human)
  residual activity: 97%
CAMK2G (human)
  residual activity: 99.6%
CDC42BPB (human)
  residual activity: 98%
CDK2 CCNE1 (human)
  residual activity: 89.1%
CDK6 CCND3 (human)
  residual activity: 99%
CDK9 CCNT1 (human)
  residual activity: 100%
CLK1 (human)
  residual activity: 99.2%
CLK3 (human)
  residual activity: 99.3%
CLK4 (human)
  residual activity: 92%
CSK (human)
  residual activity: 91.5%
CSNK1A1 (human)
  residual activity: 91.1%
CSNK2A1 (human)
  residual activity: 101%
DAPK2 (human)
  residual activity: 105%
DAPK3 (human)
  residual activity: 110%
DYRK4 (human)
  residual activity: 98.1%
EPHB4 (human)
  residual activity: 99.5%
ERBB4 (human)
  residual activity: 99.8%
GRK7 (human)
  residual activity: 116%
GSK3B (human)
  residual activity: 97.5%
JAK2 JH1 JH2 (human)
  residual activity: 103%
LIMK1 (human)
  residual activity: 102%
MAP3K5 (human)
  residual activity: 99%
MAP3K9 (human)
  residual activity: 99.5%
MAP4K5 (human)
  residual activity: 93.8%
MAPK11 (human)
  residual activity: 104%
MERTK (human)
  residual activity: 97.9%
MINK1 (human)
  residual activity: 95.2%
MYLK2 (human)
  residual activity: 101%
PNCK (human)
  residual activity: 104%
PTK2B (human)
  residual activity: 108%
ROCK1 (human)
  residual activity: 96.3%
ROS1 (human)
  residual activity: 96.8%
RPS6KA4 KD2 (human)
  residual activity: 111%
RPS6KA5 KD2 (human)
  residual activity: 99.6%
TAOK3 (human)
  residual activity: 90.2%
TBK1 (human)
  residual activity: 94%
TEC (human)
  residual activity: 111%
ULK1 (human)
  residual activity: 99.8%
VRK1 (human)
  residual activity: 87.2%
WNK3 (human)
  residual activity: 99.2%

## COc1cc2c(cc1OC)-c1[nH]nc(Nc3cccc(F)c3)c1C2
ACVRL1 (human)
  residual activity: 102%
BRSK1 (human)
  residual activity: 89.3%
CAMK2G (human)
  residual activity: 101%
CDC42BPB (human)
  residual activity: 99.2%
CDK2 CCNE1 (human)
  residual activity: 88.6%
CDK6 CCND3 (human)
  residual activity: 99.5%
CDK9 CCNT1 (human)
  residual activity: 97.6%
CLK1 (human)
  residual activity: 102%
CLK3 (human)
  residual activity: 96.5%
CLK4 (human)
  residual activity: 77.7%
CSK (human)
  residual activity: 44.9%
CSNK2A1 (human)
  residual activity: 96.6%
DAPK2 (human)
  residual activity: 86.7%
DAPK3 (human)
  residual activity: 100%
DYRK4 (human)
  residual activity: 92.6%
EPHA7 (human)
  residual activity: 98%
EPHB4 (human)
  residual activity: 95.3%
ERBB4 (human)
  residual activity: 96.5%
GRK7 (human)
  residual activity: 101%
GSK3B (human)
  residual activity: 96.6%
JAK2 JH1 JH2 (human)
  residual activity: 107%
LIMK1 (human)
  residual activity: 23.3%
MAP3K5 (human)
  residual activity: 99.9%
MAP3K9 (human)
  residual activity: 90%
MAP4K5 (human)
  residual activity: 89%
MAPK11 (human)
  residual activity: 83%
MERTK (human)
  residual activity: 78.7%
MINK1 (human)
  residual activity: 83.6%
MYLK2 (human)
  residual activity: 86.4%
PNCK (human)
  residual activity: 98%
PTK2B (human)
  residual activity: 98%
ROCK1 (human)
  residual activity: 87.5%
ROS1 (human)
  residual activity: 97.5%
RPS6KA4 KD2 (human)
  residual activity: 99.8%
RPS6KA5 KD2 (human)
  residual activity: 96%
TAOK3 (human)
  residual activity: 91.5%
TBK1 (human)
  residual activity: 101%
TEC (human)
  residual activity: 95%
ULK1 (human)
  residual activity: 103%
VRK1 (human)
  residual activity: 89.9%
WNK3 (human)
  residual activity: 104%

## N/C(=N\N=C/c1ccc(-c2cccc([N+](=O)[O-])c2)o1)N[N+](=O)[O-]
ACVRL1 (human)
  residual activity: 106%
BRSK1 (human)
  residual activity: 97.2%
CAMK2G (human)
  residual activity: 82.1%
CDC42BPB (human)
  residual activity: 95.4%
CDK6 CCND3 (human)
  residual activity: 94.7%
CDK9 CCNT1 (human)
  residual activity: 109%
CLK1 (human)
  residual activity: 105%
CLK3 (human)
  residual activity: 97.7%
CLK4 (human)
  residual activity: 103%
CSK (human)
  residual activity: 98.5%
CSNK1A1 (human)
  residual activity: 113%
CSNK2A1 (human)
  residual activity: 91%
DAPK2 (human)
  residual activity: 80.1%
DAPK3 (human)
  residual activity: 103%
DYRK4 (human)
  residual activity: 92.7%
EPHA7 (human)
  residual activity: 97.9%
EPHB4 (human)
  residual activity: 91.6%
ERBB4 (human)
  residual activity: 103%
GRK7 (human)
  residual activity: 97%
GSK3B (human)
  residual activity: 117%
JAK2 JH1 JH2 (human)
  residual activity: 98.8%
LIMK1 (human)
  residual activity: 99.7%
MAP3K5 (human)
  residual activity: 92.5%
MAP4K5 (human)
  residual activity: 109%
MAPK11 (human)
  residual activity: 96.6%
MERTK (human)
  residual activity: 92.3%
MINK1 (human)
  residual activity: 84.1%
MYLK2 (human)
  residual activity: 100%
PNCK (human)
  residual activity: 100%
PTK2B (human)
  residual activity: 91.5%
ROCK1 (human)
  residual activity: 91.7%
ROS1 (human)
  residual activity: 97.5%
RPS6KA4 KD2 (human)
  residual activity: 98.9%
RPS6KA5 KD2 (human)
  residual activity: 101%
TAOK3 (human)
  residual activity: 99.5%
TBK1 (human)
  residual activity: 104%
TEC (human)
  residual activity: 147%
ULK1 (human)
  residual activity: 93.7%
VRK1 (human)
  residual activity: 95.1%
WNK3 (human)
  residual activity: 96.6%

## CN[C@@H]1C[C@H]2O[C@@](C)([C@@H]1OC)n1c3ccccc3c3c4c(c5c6ccccc6n2c5c31)C(=O)NC4
CDK9 CCNT1 (human)
  residual activity: 1.38%
CLK4 (human)
  residual activity: 6.62%
CSK (human)
  residual activity: 8.01%
DAPK3 (human)
  residual activity: 1.91%
GRK7 (human)
  residual activity: 0.737%
MAP3K5 (human)
  residual activity: 4.72%
RPS6KA4 KD2 (human)
  residual activity: 6.74%
RPS6KA5 KD2 (human)
  residual activity: 1.24%
TBK1 (human)
  residual activity: -0.455%
